Results reported in patent publication US7015202B2, “Use of glycyrrhizin and its derivatives as MCP-1 production inhibitors” (Minophagen Pharmaceutical Co., Ltd., priority 2002, dated 2006).

Key:
[1] = system: MCP-1; assay: MCP-1 production by IL-10-stimulated peripheral blood mononuclear cells (ELISA); type: cell-based, human; conditions: PBMC from healthy individuals, 20 ng/ml IL-10, compound 100 μg/ml, 24 hours, FIG. 1
Protocol: Peripheral blood was collected from health individuals and the fraction containing peripheral blood mononuclear cells (PBMC) was isolated with Ficoll-Hypaque. Monocytes were inoculated into each well of a 96-well flat-bottom microtiter plate at a concentration of 1×10^6 cells/ml. RPMI1640 medium containing 10% FCS and antibiotics (penicillin and streptomycin) was used for culturing. The cells were cultured using an incubator maintained at a temperature of 37° C. and CO2 concentration of 5%. The cells were stimulated by addition of 20 ng/ml of IL-10 (acquired from PeproTech) to each well, and a solution of glycyrrhizin or its derivatives was added at a concentration of 100 μg/ml to all wells except the control well, after which culturing was continued for 24 hours. Following addition of glycyrrhizin, the culture supernatant was recovered and the amount of MCP-1 in the supernatant was quantified by ELISA. A commercially available kit (trade name: Human MCP-1 BD OptEIA ELISA Kit) was used for ELISA.

[2] = system: MCP-1; assay: MCP-1 production by peripheral blood mononuclear cells from burn patients (ELISA); type: cell-based, human; conditions: 100 μg/ml, 24 hours, FIG. 2
Protocol: Experimental Method Peripheral blood was collected from burn patients (third-degree burns covering 45–78% of the body surface), and peripheral blood mononuclear cells were isolated with Ficoll-Hypaque. 1×10^6 cells/ml of the peripheral blood mononuclear cells were stimulated for 24 hours with 100 μg/ml of glycyrrhizin. Furthermore, mononuclear cells from healthy subjects were cultured under the same conditions for the control. The amount of MCP-1 in the culture supernatant was measured with the Human MCP-1 BD OptEIA ELISA Kit.

[3] = system: MCP-1; assay: MCP-1 production by peripheral blood mononuclear cells from AIDS patients (ELISA); type: cell-based, human; conditions: 0.1 to 100 μg/ml, 24 hours, FIG. 3
Protocol: Peripheral blood was collected from AIDS patients and the fraction containing peripheral blood mononuclear cells was isolated using Ficoll-Hypaque. Mononuclear cells were inoculated into each well of a 96-well flat-bottom microtiter plate at a concentration of 1×10^6 cells/ml. The medium was the same as that used in Example 1. The cells were cultured using an incubator maintained at a temperature of 37° C. and CO2 concentration of 5%.
Glycyrrhizin solution was added to each well except the control well at a final concentration of 0.1 to 100 μg/ml followed by culturing for 24 hours.
Following addition of glycyrrhizin, the culture supernatant was recovered and the amount of MCP-1 in the supernatant was quantified by ELISA. A commercially available kit (trade name: Human MCP-1 BD OptEIA ELISA Kit) was used for ELISA.

[4] = system: HSV-1; assay: Sensitivity to HSV-1 infection in burn mice; type: in vivo
Protocol: Experimental Method One day after subjecting normal mice and MCP-1 knockout mice to third degree burns over 15% of their body surface area, the animals were intraperitoneally infected with HSV-1 in an amount of 1×10^1 to 1×10^6 pfu/kg body weight. For the control, normal mice were infected with HSV-1 under the same conditions. In addition, MCP-1 (50 ng/mouse) was administered subcutaneously to normal mice 2 hours before infection and 12 and 24 hours after infection. Anti-MCP-1 monoclonal antibody (10 μg/mouse) was administered subcutaneously to the burn mice 2 hours before infection and 12 and 24 hours after infection.

[5] = system: HIV; conditions: reported in recent years; cited from earlier work
[6] = system: HIV; conditions: 150 to 225 mg (6 to 9 tablets) per day, asymptomatic carriers (AC); cited from earlier work

For CC1(C)[C@@H](O[C@H]2O[C@H](C(=O)O)[C@@H](O)[C@H](O)[C@H]2O[C@@H]2O[C@H](C(=O)O)[C@@H](O)[C@H](O)[C@H]2O)CC[C@]2(C)[C@H]3C(=O)C=C4[C@@H]5C[C@@](C)(C(=O)O)CC[C@]5(C)CC[C@@]4(C)[C@]3(C)CC[C@@H]12.N [glycyrrhizin, monoammonium glycyrrhizinate], the “production of MCP-1 induced by IL-10” value [1] was “inhibiting the production of MCP-1 induced by IL-10”, the “production of MCP-1 by mononuclear cells from burn patients” value [2] was “effectively inhibited the production of MCP-1” and the “production of MCP-1 by mononuclear cells from AIDS patients” value [3] was “production of MCP-1 was found to be inhibited”. The “infection sensitivity to HSV-1 infection” value ([4]; burn mice (third degree burns, 15% of body surface), HSV-1 intraperitoneal, FIG. 4) was “recover to the same level as normal mice”, the “intracellular growth of HIV” value [5] was “inhibits the intracellular growth of HIV” and the “survival without the onset of AIDS” value [6] was no less than 10 years.

For “MCP-1: monocyte chemoattractant protein-1, a CC chemokine composed of 76 amino acids”, the “infection sensitivity to HSV-1 infection” value ([4]; normal mice dosed MCP-1 50 ng/mouse subcutaneously 2 hours before and 12 and 24 hours after infection) was 100 times higher as compared with.
